Assays:
Format in all cases: biochemical
Klenow = biological target: T1, Klenow (Escherichia coli, UniProt P00582); assay: Chain elongation: addition of modified nucleotide to primer by polymerase (gel autoradiography); parameters: key: +: slow addition of modified nucleotide to the primer; ++: good addition of modified nucleotide to the primer; -: no addition of modified nucleotide to the primer; conditions: Klenow 1.5 units; modified nucleotide 100 µM; dATP, dGTP, dCTP 0.5 µM each; 37°C
T1 construct: Klenow
Procedure: (§1) The triposphates of the modified nucleotides are synthesized as described by Kovács & Ötvös (Tetrahedron Lett. (1988), 29, […]) • 5' P^32-[…]-OH SEQ ID NO:1 • 3' HO-[…]-OH SEQ ID NP:2
(§2) A solution of template (3.0 pmol of SEQ ID NO:2) and radioactive primer (0.8 pmol of SEQ ID NO:1) in 72 µl buffer (20 mM Tris-HCl, pH 7.5; 6 mM MgCl2; 40 mM KCl; 0.5 mM DTT) are heated to 80°C and allowed to cool down to 25°C within one hour. To this solution polymerase (see table 1) is added. Aliquots of thereof are mixed with 4 µl of a solution comprising dATP, dGTP, dCTP and the modified nucleotide (see table 1), resulting in a final concentration of dATP, dGTP and dCTP as provided in table 1 and a final concentration of the modified nucleotide of 100 µM. The solutions are incubated at 37°C and the elongation reaction is stopped by addition of 5 µl of a solution of formamide comprising 5 mM EDTA (pH 8.0).
(§3) 3-5 µl of these solutions are subjected to a polyacrylamide gel (19 % acrylamide, 7 M urea). After electrophoresis the gel is transferred to a filter paper, dried and analyzed using autoradiography (see table 2).

T7 sequenase version 2 = T7 sequenase version 2 (Escherichia phage T7, UniProt P00581, DEL118-145); assay: as above; parameters: key: +: slow addition of modified nucleotide to the primer; ++: good addition of modified nucleotide to the primer; -: no addition of modified nucleotide to the primer; conditions: T7 sequenase version 2 0.13 units; modified nucleotide 100 µM; dATP, dGTP, dCTP 2.5 µM each; 37°C
Procedure: as §1, §2, §3

AMV RT = assay: Chain elongation: addition of modified nucleotide to primer by reverse transcriptase (gel autoradiography); parameters: key: +: slow addition of modified nucleotide to the primer; ++: good addition of modified nucleotide to the primer; -: no addition of modified nucleotide to the primer; conditions: AMV RT 2.0 units; modified nucleotide 100 µM; dATP, dGTP, dCTP 0.5 µM each; 37°C
Procedure: as §1, §2, §3

M-MuLV RT = biological target: T2, M-MuLV RT (Moloney murine leukemia virus, UniProt P03355); assay: as above; parameters: key: +: slow addition of modified nucleotide to the primer; ++: good addition of modified nucleotide to the primer; -: no addition of modified nucleotide to the primer; conditions: M-MuLV RT 9 units; modified nucleotide 100 µM; dATP, dGTP, dCTP 15.0 µM each; 37°C
T2 construct: M-MuLV RT
Procedure: as §1, §2, §3

HIV-1RT = biological target: T3, HIV-1RT (Human immunodeficiency virus type 1 group M subtype B, UniProt P04585); assay: as above; parameters: key to addition of modified nucleotide to the primer: +: slow addition of modified nucleotide to the primer; ++: good addition of modified nucleotide to the primer; -: no addition of modified nucleotide to the primer; conditions: HIV-1RT 0.13 units; modified nucleotide 100 µM; dATP, dGTP, dCTP 1.0 µM each; 37°C
T3 construct: HIV-1RT
Procedure: as §1, §2, §3

Sequence of T7 sequenase version 2 (P00581 other isoform, or with tags, fused parts or gaps DEL118-145): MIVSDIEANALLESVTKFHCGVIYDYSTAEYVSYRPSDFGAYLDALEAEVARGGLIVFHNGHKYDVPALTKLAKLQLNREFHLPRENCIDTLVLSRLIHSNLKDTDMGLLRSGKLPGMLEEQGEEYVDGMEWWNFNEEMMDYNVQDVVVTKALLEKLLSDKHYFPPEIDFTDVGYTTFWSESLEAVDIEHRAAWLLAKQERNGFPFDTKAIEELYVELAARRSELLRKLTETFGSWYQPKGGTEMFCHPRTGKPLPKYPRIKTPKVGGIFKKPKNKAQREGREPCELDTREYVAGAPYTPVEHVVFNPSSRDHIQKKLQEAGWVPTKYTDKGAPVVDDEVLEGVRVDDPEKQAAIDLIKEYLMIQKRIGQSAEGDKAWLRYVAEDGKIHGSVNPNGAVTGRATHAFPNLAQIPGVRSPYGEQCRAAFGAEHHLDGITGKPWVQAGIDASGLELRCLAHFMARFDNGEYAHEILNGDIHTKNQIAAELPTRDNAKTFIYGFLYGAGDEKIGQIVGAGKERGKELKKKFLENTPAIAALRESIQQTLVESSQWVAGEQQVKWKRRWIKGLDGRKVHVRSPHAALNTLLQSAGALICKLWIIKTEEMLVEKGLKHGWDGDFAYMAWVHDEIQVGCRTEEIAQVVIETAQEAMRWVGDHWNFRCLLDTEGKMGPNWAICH
Sequence of T7 sequenase version 2 (P0AA25 2-109, stated change not applied, further chain): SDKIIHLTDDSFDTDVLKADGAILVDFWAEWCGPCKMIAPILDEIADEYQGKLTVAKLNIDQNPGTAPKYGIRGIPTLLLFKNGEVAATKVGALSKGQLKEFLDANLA
T1 sequence (P00582 324-928): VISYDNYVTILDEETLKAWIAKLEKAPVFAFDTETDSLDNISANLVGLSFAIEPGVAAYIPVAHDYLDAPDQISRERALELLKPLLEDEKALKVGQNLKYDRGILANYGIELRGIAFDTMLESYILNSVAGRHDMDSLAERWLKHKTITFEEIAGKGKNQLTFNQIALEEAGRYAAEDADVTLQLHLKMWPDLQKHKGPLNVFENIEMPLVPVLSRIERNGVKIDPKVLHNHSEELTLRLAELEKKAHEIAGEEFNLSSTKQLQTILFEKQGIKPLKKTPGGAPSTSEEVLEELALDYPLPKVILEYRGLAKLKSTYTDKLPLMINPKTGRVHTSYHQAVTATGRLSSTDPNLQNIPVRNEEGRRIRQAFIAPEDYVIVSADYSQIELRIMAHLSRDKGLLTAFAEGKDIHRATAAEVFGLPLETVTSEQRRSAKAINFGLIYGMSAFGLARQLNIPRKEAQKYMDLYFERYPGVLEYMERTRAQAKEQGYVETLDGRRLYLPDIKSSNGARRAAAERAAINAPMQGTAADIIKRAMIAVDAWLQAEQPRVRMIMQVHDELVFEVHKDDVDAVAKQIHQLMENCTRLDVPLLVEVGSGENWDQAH

Structure (SMILES)	addition of modified nucleotide to the primer (Klenow)	addition of modified nucleotide to the primer (T7 sequenase version 2)	addition of modified nucleotide to the primer (AMV RT)	addition of modified nucleotide to the primer (M-MuLV RT)	addition of modified nucleotide to the primer (HIV-1RT)	elongation after addition of modified nucleotide (HIV-1RT)
Cc1cn([C@H]2C[C@H](O)[C@](COP(=O)(O)OP(=O)(O)OP(=O)(O)O)(C(=O)c3ccccc3)O2)c(=O)[nH]c1=O [R^1=C6H5]	-	-	++	-	++	
CC(=O)[C@]1(COP(=O)(O)OP(=O)(O)OP(=O)(O)O)O[C@@H](n2cc(C)c(=O)[nH]c2=O)C[C@@H]1O [R^1=CH3]	++	++	++	++	++	elongation
CCC(=O)[C@]1(COP(=O)(O)OP(=O)(O)OP(=O)(O)O)O[C@@H](n2cc(C)c(=O)[nH]c2=O)C[C@@H]1O [R^1=CH3CH2]	+	++	++	++	++	
Cc1cn([C@H]2C[C@H](O)[C@](COP(=O)(O)OP(=O)(O)OP(=O)(O)O)(C(=O)C(C)(C)C)O2)c(=O)[nH]c1=O [R^1=t-butyl]	-	-	-	-	-	
